# Test results reported in PMC9861757, “New Insights into Conformationally Restricted Carbonic Anhydrase Inhibitors” (Molecules, 2023).
# Like-named read-outs stand apart in the source and are kept apart here.
# How the values were obtained:
# human CA I [1] = biological target: T1, human CA I (Homo sapiens, UniProt P00915); assay: stopped-flow CO2 hydrase assay, CA I inhibition; details: for loss of CA I inhibition potency relative to 3a: comparator 3a; for inhibition of CA I (in words): qualitative statement
# T1 sequence (P00915 whole entry): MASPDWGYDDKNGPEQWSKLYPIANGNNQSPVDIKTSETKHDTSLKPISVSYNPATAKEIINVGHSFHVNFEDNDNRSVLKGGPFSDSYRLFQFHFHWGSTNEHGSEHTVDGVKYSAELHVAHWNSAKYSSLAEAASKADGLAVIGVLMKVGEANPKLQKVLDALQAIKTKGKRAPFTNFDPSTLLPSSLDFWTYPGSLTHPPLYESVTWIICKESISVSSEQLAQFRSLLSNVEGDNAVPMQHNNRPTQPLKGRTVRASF
# Experimental: (§1) An Applied Photophysics stopped-flow instrument was used to assay the CA catalyzed CO2 hydration activity [14]. […] The uncatalyzed rates were determined in the same manner and subtracted from the total observed rates. Stock solutions of the inhibitor (0.1 mM) were prepared in distilled–deionized water and dilutions up to 0.01 nM were done thereafter with the assay buffer. Inhibitor and enzyme solutions were preincubated together for 15 min at room temperature prior to the assay to allow for the formation of the E–I complex. The inhibition constants were obtained by non-linear least-squares methods using PRISM 3 and the Cheng–Prusoff equation, as reported earlier, and represent the mean from at least three different determinations. All CA isoforms were recombinant proteins obtained in house, as reported earlier [1, 12, 13].
# human CA II [2] = biological target: T2, human CA II (Homo sapiens, UniProt P00918); assay: stopped-flow CO2 hydrase assay, CA II inhibition
# Experimental: as §1
# human CA IX [3] = biological target: T3, human CA IX (Homo sapiens, UniProt Q16790); assay: stopped-flow CO2 hydrase assay, CA IX inhibition; details: for SI (IX/II): ratio KI CA IX / KI CA II
# Experimental: as §1
# human CA XII [4] = biological target: T4, human CA XII (Homo sapiens, UniProt O43570); assay: stopped-flow CO2 hydrase assay, CA XII inhibition
# T4 sequence (O43570 25-354): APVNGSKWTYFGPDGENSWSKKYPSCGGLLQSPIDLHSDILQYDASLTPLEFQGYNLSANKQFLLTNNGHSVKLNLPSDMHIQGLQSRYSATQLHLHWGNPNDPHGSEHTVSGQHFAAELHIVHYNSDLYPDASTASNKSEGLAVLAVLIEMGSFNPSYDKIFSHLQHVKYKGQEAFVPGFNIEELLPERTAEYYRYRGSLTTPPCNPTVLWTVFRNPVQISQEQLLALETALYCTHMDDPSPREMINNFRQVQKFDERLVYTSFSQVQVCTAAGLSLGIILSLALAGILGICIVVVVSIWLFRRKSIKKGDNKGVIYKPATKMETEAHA
# Experimental: as §1
# human CA II [5] = biological target: T2, human CA II; design: made in house; method as in PMID 31076951; details: stopped-flow CO2 hydrase assay; compound marked with a reference in Table 1; cited from earlier work
# human CA IX [6] = biological target: T3, human CA IX; design: made in house; method as in PMID 31076951; details: stopped-flow CO2 hydrase assay; compound marked with a reference in Table 1; cited from earlier work
# human CA XII [7] = biological target: T4, human CA XII; design: made in house; method as in PMID 31076951; details: stopped-flow CO2 hydrase assay; compound marked with a reference in Table 1; cited from earlier work
# human CA I [8] = biological target: T1, human CA I; design: made in house; method as in PMID 31076951; details: stopped-flow CO2 hydrase assay; compound marked with a reference in Table 1; cited from earlier work
Ki (human CA I [1]) [nM],Ki (human CA II [2]) [nM],Ki (human CA IX [3]) [nM],SI (IX/II) (human CA IX [3]),Ki (human CA XII [4]) [nM],SMILES,further results
8650,914,308,0.34,507,"NS(=O)(=O)c1ccc(O)c(NC(=O)N2CCCCC2)c1 [Compound 3b, N-(2-Hydroxy-5-sulfamoylphenyl)piperidine-1-carboxamide]","loss of CA I inhibition potency relative to 3a (human CA I [1]; CA I): 14.8 fold; more effective on CA II than 3a (human CA II [2]; CA II, comparator 3a): 3.5 fold; more effective on CA IX than 3a (human CA IX [3]; CA IX, comparator 3a): 1.2 fold"
583,3180,369,0.12,91.3,"NS(=O)(=O)c1ccc(O)c(NC(=O)N2CCCC2)c1 [Compound 3a, N-(2-Hydroxy-5-sulfamoylphenyl)pyrrolidine-1-carboxamide]","more effective CA XII inhibitor than 3b (human CA XII [4]; CA XII, comparator 3b): 5.5 fold"
8990,7740,2150,0.28,505,"CCN1CCN(C(=O)Nc2cc(S(N)(=O)=O)ccc2O)CC1 [Compound 3f, 4-Ethyl-N-(2-hydroxy-5-sulfamoylphenyl)piperazine-1-carboxamide]","decrease of CA I affinity relative to 3d (human CA I [1]; CA I, comparator 3d): 13.1 fold; more effective CA XII inhibitor than 3d (human CA XII [4]; CA XII, comparator 3d): 1.3 fold"
4000,8030,140,0.017,73.8,"NS(=O)(=O)c1ccc(O)c(NC(=O)N2CCOCC2)c1 [Compound 3c, N-(2-Hydroxy-5-sulfamoylphenyl)morpholine-4-carboxamide]","loss of CA I inhibition potency relative to 3a (human CA I [1]; CA I): 6.9 fold; CA IX potency increase relative to 3b (human CA IX [3]; CA IX, comparator 3b): 2.2 fold"

# More lines, now with the values behind:
SMILES,Ki (human CA I [1]) [nM],Ki (human CA II [2]) [nM],Ki (human CA IX [3]) [nM],SI (IX/II) (human CA IX [3]),Ki (human CA XII [4]) [nM],further results
"NS(=O)(=O)c1ccc(O)c(NC(=O)NCCN2CCOCC2)c1 [Compound 3e, 4-Hydroxy-3-(3-(2-morpholinoethyl)ureido)benzenesulfonamide]",9210,3000,2140,0.71,629,"decrease of CA I affinity relative to 3d (human CA I [1]; CA I, comparator 3d): 13.4 fold; more potent CA IX inhibition compared to 3d (human CA IX [3]; CA IX, comparator 3d): 1.9 fold"
"NS(=O)(=O)c1ccc(O)c(NC(=O)N2CCN(CC(=O)NC3CCCCC3)CC2)c1 [Compound 3i, 4-(2-(Cyclohexylamino)-2-oxoethyl)-N-(2-hydroxy-5-sulfamoylphenyl)piperazine-1-carboxamide]",698,405,204,0.50,33.7,inhibition of CA I (in words) (human CA I [1]; CA I): did not result in appreciable inhibition
"NS(=O)(=O)c1ccc(O)c(NC(=O)NCCN2CCCCC2)c1 [Compound 3d, 4-Hydroxy-3-(3-(2-(piperidin-1-yl)ethyl)ureido)benzenesulfonamide]",689,288,4120,14.3,659,
"NS(=O)(=O)c1ccc(CCNC(=O)Nc2ccccc2O)cc1 [Compound 3k, 4-(2-(3-(2-Hydroxyphenyl)ureido)ethyl)benzenesulfonamide]",,75.9,34.7,0.77,239,"inhibition of CA I (in words) (human CA I [1]; CA I): did not result in appreciable inhibition; less effective on CA II than AAZ (human CA II [2]; CA II, comparator AAZ): 6.3 fold"
"NS(=O)(=O)c1ccc(O)c(NC(=O)NCCCCO)c1 [Compound 3j, 4-Hydroxy-3-(3-(4-hydroxybutyl)ureido)benzenesulfonamide]",,,,0.46,,Ki (human CA II [5]): 280 nM; Ki (human CA IX [6]): 215 nM; Ki (human CA XII [7]): 47.1 nM; inhibition of CA I (in words) (human CA I [1]; CA I): did not result in appreciable inhibition
"NS(=O)(=O)c1ccc(O)c(NC(=O)NCCc2ccccn2)c1 [Compound 3h, 4-Hydroxy-3-(3-(2-(pyridin-2-yl)ethyl)ureido)benzenesulfonamide]",,,,0.0007,,"Ki (human CA I [8]): 571 nM; Ki (human CA II [5]): 331 nM; Ki (human CA IX [6]): 0.24 nM; Ki (human CA XII [7]): 65.9 nM; CA I potency increase relative to 3d (human CA I [1]; CA I, comparator 3d): 1.2 fold"
"NS(=O)(=O)c1ccc(O)c(NC(=O)NCc2ccncc2)c1 [Compound 3g, 4-Hydroxy-3-(3-(pyridin-4-ylmethyl)ureido)benzenesulfonamide]",,,,0.0006,,"Ki (human CA I [8]): 89.5 nM; Ki (human CA II [5]): 463 nM; Ki (human CA IX [6]): 0.3 nM; Ki (human CA XII [7]): 85.1 nM; more potent on CA I compared to AAZ (human CA I [1]; CA I, comparator AAZ): up to 2.8 fold"
